The text below walks through data of patent publication US10975056B2 (GlaxoSmithKline Intellectual Property Development Limited, priority 2016, dated 2021).

Several values for one entry are separate records, joined by “and”; a condition that tells them apart may be missing. Equal values may be shown once. Where a name gives a salt, the structure may show the parent alone. Read-outs that look alike come from different tables or passages of the source. Some results are limits rather than exact numbers.

Test [1] deals with erythroid progenitor cells (EPCs). Kind of test: Fetal hemoglobin (HbF) ELISA in day 7 erythroid progenitor cells.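 Also: for fetal hemoglobin induction normalized to vehicle-treated cells.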 The class given is cell-based, human. The settings on record: Homo sapiens, Erythroid progenitor cell, HbF ELISA, day 7 EPCs, 5 days; read-out: EPC ELISA (pEC50 category) (converted). An outline of the steps:
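HbF induction was read by anti-HbF sandwich ELISA (HRP/TMB, OD450) on lysates and normalized to vehicle-treated cells. Cells were day 7 erythroid progenitors derived from human bone marrow CD34+ cells, seeded at 1,000/well with 3 U/mL rhEPO. Compound was given for 5 days at 37 °C at final concentrations […].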
Background: In an ELISA, binding on a coated surface is turned into a signal by an enzyme label.

Test [2] concerns the target DNMT1 (Homo sapiens, UniProt P26358). Put plainly: DNMT1 biochemical activity, breaklight assay and/or SPA assay.
[3] abbreviates: binned activity in either the breaklight or the SPA assay.
Where [4] appears, read: binned activity in either the breaklight or the SPA assay, read-out: DNMT1 BioChemical (pIC50 category) (converted).
The mark [5] stands for this setting: breaklight assay and/or SPA assay, repeated experimental runs, read-out: average pIC50 against DNMT1 (converted).

Chain of DNMT1 (P26358 whole entry, looked up): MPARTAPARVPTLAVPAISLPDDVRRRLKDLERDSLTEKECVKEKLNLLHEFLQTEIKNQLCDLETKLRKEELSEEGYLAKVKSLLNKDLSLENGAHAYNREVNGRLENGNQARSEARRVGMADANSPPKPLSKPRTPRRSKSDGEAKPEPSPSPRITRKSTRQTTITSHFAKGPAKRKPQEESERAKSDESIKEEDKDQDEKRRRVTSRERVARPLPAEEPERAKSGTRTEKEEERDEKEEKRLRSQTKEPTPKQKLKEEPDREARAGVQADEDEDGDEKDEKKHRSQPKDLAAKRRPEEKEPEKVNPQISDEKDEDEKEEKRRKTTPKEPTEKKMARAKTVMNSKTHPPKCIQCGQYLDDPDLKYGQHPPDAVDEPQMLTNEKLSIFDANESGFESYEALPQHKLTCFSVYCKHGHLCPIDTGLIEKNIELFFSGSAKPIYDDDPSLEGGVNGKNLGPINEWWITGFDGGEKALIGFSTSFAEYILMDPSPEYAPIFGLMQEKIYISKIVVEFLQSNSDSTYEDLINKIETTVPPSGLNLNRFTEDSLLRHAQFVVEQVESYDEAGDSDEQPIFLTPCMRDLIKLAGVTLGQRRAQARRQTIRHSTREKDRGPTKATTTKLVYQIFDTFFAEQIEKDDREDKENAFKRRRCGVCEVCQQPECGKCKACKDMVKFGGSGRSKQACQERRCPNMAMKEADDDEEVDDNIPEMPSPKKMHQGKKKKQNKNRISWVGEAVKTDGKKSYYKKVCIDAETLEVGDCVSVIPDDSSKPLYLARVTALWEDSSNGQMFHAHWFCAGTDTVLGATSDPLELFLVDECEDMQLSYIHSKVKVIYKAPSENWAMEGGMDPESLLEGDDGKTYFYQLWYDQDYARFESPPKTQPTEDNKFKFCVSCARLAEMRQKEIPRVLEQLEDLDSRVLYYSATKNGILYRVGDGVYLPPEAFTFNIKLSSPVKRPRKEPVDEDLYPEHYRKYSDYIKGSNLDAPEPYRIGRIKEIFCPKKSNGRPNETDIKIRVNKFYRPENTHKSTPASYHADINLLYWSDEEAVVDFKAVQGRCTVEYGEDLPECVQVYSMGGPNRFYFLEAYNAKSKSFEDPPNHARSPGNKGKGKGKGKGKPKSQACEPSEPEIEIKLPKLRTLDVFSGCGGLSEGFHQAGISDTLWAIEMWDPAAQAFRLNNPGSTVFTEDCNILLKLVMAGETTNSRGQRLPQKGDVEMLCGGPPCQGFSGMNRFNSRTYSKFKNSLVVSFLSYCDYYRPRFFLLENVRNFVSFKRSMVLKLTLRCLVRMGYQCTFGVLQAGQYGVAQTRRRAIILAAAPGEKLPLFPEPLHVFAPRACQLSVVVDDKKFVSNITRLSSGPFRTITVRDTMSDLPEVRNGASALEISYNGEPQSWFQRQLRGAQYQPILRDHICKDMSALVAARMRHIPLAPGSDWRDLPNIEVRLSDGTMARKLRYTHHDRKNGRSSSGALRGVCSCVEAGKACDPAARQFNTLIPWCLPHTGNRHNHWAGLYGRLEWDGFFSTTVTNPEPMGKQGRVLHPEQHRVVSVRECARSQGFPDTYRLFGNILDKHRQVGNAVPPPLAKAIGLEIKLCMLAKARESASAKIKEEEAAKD

For `CCc1c(C#N)c(SC(C(N)=O)c2ccccc2)nc(N2CCO[C@H](CNCC(C)(C)C)C2)c1C#N` (some centres unmarked) [Example 555], the EC50 in test [1] was under 0.316 µM. The “DNMT1 BioChemical (pIC50 category)” value in test [2] (setting [3]) is given as “D (Category D: ≥6.5)”.

For `CN1CCN(c2nc(SC(C(N)=O)c3ccccc3)c(C#N)c(C3CC3)c2C#N)CCC1=O` (centres unmarked) [Example 109, 2-{[3,5-Dicyano-4-cyclopropyl-6-(4-methyl-5-oxo-1,4-diazepan-1-yl)pyridin-2-yl]sulfanyl}-2-phenylacetamide], the EC50 in test [1] is under 0.316 µM. Moreover, the IC50 in test [2] (setting [4]) is 0.316 to 1 µM; in test [2] (setting [5]) it was at least 1 µM.

For the molecule `CCc1c(C#N)c(SCc2ccc(S(C)(=O)=O)cc2)nc(N2CCCN(C)CC2)c1C#N` [Example 379, 4-Ethyl-2-(4-methyl-1,4-diazepan-1-yl)-6-((4-(methylsulfonyl)benzyl)thio)pyridine-3,5-dicarbonitrile], the EC50 in test [1] is 0.316 to 1 µM. Besides, the IC50 was 0.316 to 1 µM in test [2] (setting [4]); 0.316 to 1 µM and 0.794 µM in test [2] (setting [5]).

For `CCc1c(C#N)c(SC(C(N)=O)c2ccccc2)nc(N(C)CCn2cnnc2)c1C#N` (centres unmarked) [Example 352, 2-((6-((2-(4H-1,2,4-Triazol-4-yl)ethyl)(methyl)amino)-3,5-dicyano-4-ethylpyridin-2-yl)thio)-2-phenylacetamide], in test [1], the EC50 is 1 to 31.6 µM. Besides, the IC50 in test [2] (setting [4]) is 0.316 to 1 µM.

For `CCc1c(C#N)c(SC(C(N)=O)c2ccccc2)nc(N2CCN(Cc3cn[nH]c3)CC2)c1C#N` (centres unmarked) [Example 187, 2-((6-(4-((1H-Pyrazol-4-yl)methyl)piperazin-1-yl)-3,5-dicyano-4-ethylpyridin-2-yl)thio)-2-phenylacetamide], the EC50 in test [1] is 1 to 31.6 µM. Moreover, the IC50 in test [2] (setting [4]) was 0.316 to 1 µM.

For `CCc1c(C#N)c(SC(C(N)=O)c2ccccc2)nc(N2CC[C@@H](N)C2)c1C#N` (stereo partly drawn) [Example 524, 2-((6-((R)-3-aminopyrrolidin-1-yl)-3,5-dicyano-4-ethylpyridin-2-yl)thio)-2-phenylacetamide], in test [1], the EC50 is under 0.316 µM. Further, the “DNMT1 BioChemical (pIC50 category)” value in test [2] (setting [3]) was “D (Category D: ≥6.5)”.

Regarding `CCc1c(C#N)c(SCc2ccc(NC(=O)CN)cc2)nc(N2CCCN(C)CC2)c1C#N` [Example 302, 2-Amino-N-(4-(((3,5-dicyano-4-ethyl-6-(4-methyl-1,4-diazepan-1-yl)pyridin-2-yl)thio)methyl)phenyl)acetamide], the EC50 in test [1] was over 31.6 µM. Also, the IC50 in test [2] (setting [4]) is 0.316 to 1 µM.

For `CCc1c(C#N)c(SC(C(N)=O)c2ccc(C(=O)c3ccccc3)cc2)nc(N2CCCN(CCO)CC2)c1C#N` (centres unmarked) [Example 245, 2-(4-Benzoylphenyl)-2-((3,5-dicyano-4-ethyl-6-(4-(2-hydroxyethyl)-1,4-diazepan-1-yl)pyridin-2-yl)thio)acetamide], in test [1], the EC50 was 0.316 to 1 µM. In test [2] (setting [4]), the IC50 was 0.316 to 1 µM.

Turning to `CC1(N)CCN(c2nc(SC(C(N)=O)c3ccccc3)c(C#N)c(C3CC3)c2C#N)CC1` (centres unmarked) [Example 321, 2-((6-(4-Amino-4-methylpiperidin-1-yl)-3,5-dicyano-4-cyclopropvlpyridin-2-yl)thio)-2-phenylacetamide], in test [1], the EC50 was under 0.316 µM. In addition, the “DNMT1 BioChemical (pIC50 category)” value in test [2] (setting [3]) is given as “D (Category D: ≥6.5)”.

Take `CCc1c(C#N)c(SC(C(N)=O)c2cncc(C)c2)nc(N2CCCN(C)CC2)c1C#N` (centres unmarked) [Example 266]: the EC50 in test [1] is 0.316 to 1 µM. Further, the IC50 was 1 to 31.6 µM in test [2] (setting [4]); ≥ 1 µM and 2 µM in test [2] (setting [5]).

As for `CCC(=O)NCc1ccc(CSc2nc(N3CCCN(C)CC3)c(C#N)c(CC)c2C#N)cc1` [Example 87, N-(4-(((3,5-Dicyano-4-ethyl-6-(4-methyl-1,4-diazepan-1-yl)pyridin-2-yl)thio)methyl)benzyl)propionamide], the EC50 in test [1] is 0.316 to 1 µM. The “DNMT1 BioChemical (pIC50 category)” value in test [2] (setting [3]) is on record as “D (Category D: ≥6.5)”.

Regarding `CCc1c(C#N)c(S[C@H](C(N)=O)c2ccccc2)nc(N2CC[C@H](OP(=O)(O)O)C2)c1C#N` [Example 417, (S)-1-(6-(((S)-2-amino-2-oxo-1-phenylethyl)thio)-3,5-dicyano-4-ethylpyridin-2-yl)pyrrolidin-3-yl dihydroden phosphate], the EC50 in test [1] was over 31.6 µM. Moreover, the “DNMT1 BioChemical (pIC50 category)” value in test [2] (setting [3]) is listed as “A (Category A: <4.5)”.

Take `CCc1c(C#N)c(SC(C(N)=O)c2ccc(F)cc2)nc(N2CCC(NCC(C)(C)C)CC2)c1C#N` (centres unmarked) [Example 408, 2-((3,5-Dicyano-4-ethyl-6-(4-(neopentylamino)piperidin-1-yl)pyridin-2-yl)thio)-2-(4-fluorophenyl)acetamide]: the EC50 in test [1] is under 0.316 µM. For the same molecule, the “DNMT1 BioChemical (pIC50 category)” value in test [2] (setting [3]) is “D (Category D: ≥6.5)”.

`CCc1c(C#N)c(SC(C(N)=O)c2ccc(F)cc2)nc(N2CCC[C@H](CNCC(C)(C)C)C2)c1C#N` (stereo partly drawn) [Example 594, 2-((3,5-dicyano-4-ethyl-6-((R)-3-((neopentylamino)methyl)piperidin-1-yl)pyridin-2-yl)thio)-2-(4-fluorophenyl)acetamide]: the EC50 in test [1] was under 0.316 µM. The “DNMT1 BioChemical (pIC50 category)” value in test [2] (setting [3]) is given as “D (Category D: ≥6.5)”.

As for `CCc1c(C#N)c(SCc2ccc(CO)cc2)nc(N2CCCN(C)CC2)c1C#N` [Example 85, 4-Ethyl-2-((4-(hydroxymethyl)benzyl)thio)-6-(4-methyl-1,4-diazepan-1-yl)pyridine-3,5-dicarbonitrile], the EC50 in test [1] was 1 to 31.6 µM. Besides, the IC50 in test [2] (setting [4]) and in test [2] (setting [5]) was 0.316 to 1 µM in each case.

Regarding `CCc1c(C#N)c(SC(C(N)=O)c2ccccc2)nc(N2CCO[C@@H](CN)C2)c1C#N` (stereo partly drawn) [Example 586, 2-((6-((S)-2-(aminomethyl)morpholino)-3,5-dicyano-4-ethylpyridin-2-yl)thio)-2-phenylacetamide], in test [1], the EC50 was under 0.316 µM. Also, the “DNMT1 BioChemical (pIC50 category)” value in test [2] (setting [3]) is on record as “D (Category D: ≥6.5)”.

In the case of `CCc1c(C#N)c(SCc2ccc(NS(C)(=O)=O)c(F)c2)nc(N2CCCN(C)CC2)c1C#N` [Example 361, N-(4-(((3,5-Dicyano-4-ethyl-6-(4-methyl-1,4-diazepan-1-yl)pyridin-2-yl)thio)methyl)-2-fluorophenyl)methanesulfonamide], the EC50 in test [1] is 1 to 31.6 µM. Moreover, the IC50 in test [2] (setting [4]) is 0.316 to 1 µM.

Consider `CCc1c(C#N)c(SC(C(N)=O)c2ccccc2)nc(N2CCC(NC(=O)C3(N)CCOCC3)CC2)c1C#N` (centres unmarked) [Example 140, 4-Amino-N-(1-(6-((2-amino-2-oxo-1-phenylethyl)thio)-3,5-dicyano-4-ethylpyridin-2-yl)piperidin-4-yl)tetrahydro-2H-pyran-4-carboxamide, Trifluoroacetic Acid Salt], for which the EC50 in test [1] was under 0.316 µM. Moreover, in test [2] (setting [3]), the “DNMT1 BioChemical (pIC50 category)” value is listed as “D (Category D: ≥6.5)”.

Take `CCc1c(C#N)c(SC(C(N)=O)c2ccccc2)nc(N2CC[C@@H](NC(=O)OC(C)(C)C)[C@@H](F)C2)c1C#N` (single isomer, unassigned) [Example 534, rel-tert-butyl (cis)-1-(6-((2-amino-2-oxo-1-phenylethyl)thio)-3,5-dicyano-4-ethylpyridin-2-yl)-3-fluoropiperidin-4-yl)carbamate]: in test [1], the EC50 is under 0.316 µM. Moreover, the IC50 in test [2] (setting [4]) was under 0.316 µM.

Take `CCc1c(C#N)c(SC(C(N)=O)c2ccccc2)nc(N2CCC3(CCN(C)C3)CC2)c1C#N` (centres unmarked) [Example 215, 2-((3,5-Dicyano-4-ethyl6-(2-methyl-2,8-diazaspiro[4.5]decan-8-yl)pyridin-2-yl)thio)-2-phenylacetamide]: the EC50 in test [1] is under 0.316 µM. Besides, the “DNMT1 BioChemical (pIC50 category)” value in test [2] (setting [3]) is on record as “D (Category D: ≥6.5)”.

Regarding `CCc1c(C#N)c(S[C@@H](C(N)=O)c2ccc(Cl)cc2)nc(N2CC[C@H](O)C2)c1C#N` [Example 424, (R)-2-(4-chlorophenyl)-2-((3,5-dicyano-4-ethyl-6-((S)-3-hydroxypyrrolidin-1-yl)pyridin-2-yl)thio)acetamide], the EC50 in test [1] was 0.316 to 1 µM. The “DNMT1 BioChemical (pIC50 category)” value in test [2] (setting [3]) was “D (Category D: ≥6.5)”.

Take `CCc1c(C#N)c(SC(C(N)=O)c2ccccc2)nc(N2CCOC(CN3CCCC3)C2)c1C#N` (centres unmarked) [Example 560, 2-((3,5-dicyano-4-ethyl-6-(2-(pyrrolidin-1-ylmethyl)morpholino)pyridin-2-yl)thio)-2-phenylacetamide]: the EC50 in test [1] was under 0.316 µM. Besides, in test [2] (setting [3]), the “DNMT1 BioChemical (pIC50 category)” value was “D (Category D: ≥6.5)”.

Consider `CCc1c(C#N)c(S[C@@H](C(N)=O)c2ccccc2)nc(N2CC[C@@H](N)[C@@H](F)C2)c1C#N` [Example 506, (R)-2-((6-((3S,4R)-4-amino-3-fluoropiperidin-1-yl)-3,5-dicyano-4-ethylpyridin-2-yl)thio)-2-phenylacetamide 2,2,2-trifluoroacetate], for which the EC50 in test [1] is under 0.316 µM. Also, in test [2] (setting [3]), the “DNMT1 BioChemical (pIC50 category)” value is reported as “D (Category D: ≥6.5)”.

`CCc1c(C#N)c(SCc2cnn(CC(N)=O)c2)nc(N(C)C)c1C#N` [Example 285, 2-(4-(((3,5-Dicyano-6-(dimethylamino)-4-ethylpyridin-2-yl)thio)methyl)-1H-pyrazol-1-yl)acetamide]: in test [1], the EC50 was 1 to 31.6 µM. Moreover, in test [2] (setting [4]), the IC50 is 0.316 to 1 µM.

On to `CCc1c(C#N)c(SC(C(N)=O)c2ccccc2)nc(N(C)CC(=O)N2CCC2)c1C#N` (centres unmarked) [Example 631, 2-((6-((2-(azetidin-1-yl)-2-oxoethyl)(methyl)amino)-3,5-dicyano-4-ethylpyridin-2-yl)thio)-2-phenylacetamide], for which the EC50 in test [1] was under 0.316 µM. Further, the “DNMT1 BioChemical (pIC50 category)” value in test [2] (setting [3]) is on record as “D (Category D: ≥6.5)”.

For the molecule `CCc1c(C#N)c(SC(C(N)=O)c2ccccc2)nc(N2CCC(NCC(=O)O)CC2)c1C#N` (centres unmarked) [Example 497, 2-((1-(6-((2-amino-2-oxo-1-phenylethyl)thio)-3,5-dicyano-4-ethylpyridin-2-yl)piperidin-4-yl)amino)acetic acid], in test [1], the EC50 was 1 to 31.6 µM. Further, in test [2] (setting [3]), the “DNMT1 BioChemical (pIC50 category)” value is “D (Category D: ≥6.5)”.
